# Assay results as given in ChEMBL document CHEMBL5046280, “Discovery of Small-Molecule Inhibitors of the PD-1/PD-L1 Axis That Promote PD-L1 Internalization and Degradation” (J Med Chem, 2022).
# Calls of active or inactive are those of the source. The calls are words filed in the database; no cut-off is given here.
# Experiments:
# [1] = biological target: Programmed cell death protein 1/Programmed cell death 1 ligand 1 (Homo sapiens, UniProt Q9NZQ7); test: Inhibition of PD-1/PD-L1 (unknown origin) interaction pre-incubated for 15 mins and measured after 90 mins by TR-FRET assay; format: protein-complex assay
# Programmed cell death protein 1/Programmed cell death 1 ligand 1, sequence (Q15116 whole entry): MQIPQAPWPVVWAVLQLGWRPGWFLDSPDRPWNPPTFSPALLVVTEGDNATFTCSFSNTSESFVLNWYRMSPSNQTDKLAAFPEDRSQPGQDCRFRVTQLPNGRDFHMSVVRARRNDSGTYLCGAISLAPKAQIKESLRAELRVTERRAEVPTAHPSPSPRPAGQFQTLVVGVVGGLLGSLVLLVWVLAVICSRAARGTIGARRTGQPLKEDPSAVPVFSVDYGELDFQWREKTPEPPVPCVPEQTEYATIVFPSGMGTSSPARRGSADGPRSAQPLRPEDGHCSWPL
# Programmed cell death protein 1/Programmed cell death 1 ligand 1, sequence (Q9NZQ7 whole entry): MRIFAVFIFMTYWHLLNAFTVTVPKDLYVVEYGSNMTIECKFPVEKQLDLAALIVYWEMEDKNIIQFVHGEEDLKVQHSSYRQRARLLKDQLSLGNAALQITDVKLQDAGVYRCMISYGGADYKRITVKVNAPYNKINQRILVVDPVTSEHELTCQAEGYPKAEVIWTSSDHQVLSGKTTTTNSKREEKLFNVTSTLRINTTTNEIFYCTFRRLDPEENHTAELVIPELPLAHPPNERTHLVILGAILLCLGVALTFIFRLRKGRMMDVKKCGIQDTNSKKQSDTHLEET
# B16-F10 [2] = test: Antitumor activity against po dosed mouse B16-F10 cells implanted in […] mouse assessed as inhibition of tumor volume in presence of PD-L1 antibody administered once daily for 2 weeks; format: functional, organism-based; details: dose 40-160 mg/kg
# MDA-MB-231 = test: Antitumor immunity against human MDA-MB-231 cells co-cultured with CD3/CD28/CD2 T cell activator stimulated human PMBC assessed as tumor cell viability measuring lactate dehydrogenase release measured for 14 hrs by PBMC killing assay relative to control; format: functional, cell-based
# CT26 [3] = test: Antitumor activity against mouse CT26 cells implanted in BALB/c mouse assessed as reduction in tumor weight at 80 mg/kg, po administered once daily for 2 weeks; format: functional; parameters: scale not given: the % may be the effect or the level left
# CT26 [4] = test: Antitumor activity against mouse CT26 cells implanted in BALB/c mouse assessed as upregulation of human PD-L1 expression in tumor tissue at 40 mg/kg per day, po administered once daily for 2 weeks by Western blotting analysis; format: functional, organism-based
# B16-F10 [5] = test: Antitumor activity against po dosed mouse B16-F10 cells implanted in […] mouse assessed as increase in infiltration of CD8+ T cells level in tumor tissue administered once daily for 2 weeks by flow cytometry; format: functional, organism-based; details: dose 40-160 mg/kg
# [6] = Toxicity in BALB/c mouse harbouring mouse CT26 cells assessed as mortality at 40 to 120 mg/kg, po administered once daily for 2 weeks; format: organism-based; details: in vivo, 336 h, dose 40-120 mg/kg
# CT26 [7] = test: Antitumor immunity activity against mouse CT26 cells implanted in BALB/c mouse assessed as upregulation of CXCL10 mRNA at 160 mg/kg, po administered once daily for 2 weeks by qRT-PCR analysis; format: functional, organism-based
# CT26 [8] = test: Antitumor immunity activity against mouse CT26 cells implanted in BALB/c mouse assessed as upregulation of IFN-gamma mRNA at 160 mg/kg, po administered once daily for 2 weeks by qRT-PCR analysis; format: functional, organism-based
# CT26 [9] = test: Antitumor activity against po dosed mouse CT26 cells implanted in BALB/c mouse assessed as tumor growth delay treated once daily for 2 weeks; format: functional, organism-based; details: dose 40-160 mg/kg
# B16-F10 [10] = test: Antitumor immunity activity against mouse B16-F10 cells implanted in […] mouse assessed as increase level of IFN-gamma mRNA at 40 to 160 mg/kg, po administered once daily for 2 weeks in presence of PD-L1 antibody by […]; format: functional, organism-based; details: dose 40-160 mg/kg
# B16-F10 [11] = test: Antitumor activity against mouse B16-F10 cells implanted in […] mouse assessed as decrease in nucleus to cytoplasm interaction in tumor cells at 40 to 160 mg/kg, po administered once daily for 2 weeks in presence of PD-L1 antibody by H and E staining based assay; format: functional, organism-based; details: dose 40-160 mg/kg
# CT26 [12] = test: Antitumor activity against mouse CT26 cells implanted in BALB/c mouse assessed as reduction in tumor weight at 160 mg/kg, po administered once daily for 2 weeks; format: functional; parameters: scale not given: the % may be the effect or the level left
# CT26 [13] = test: Antitumor immunity activity against mouse CT26 cells implanted in BALB/c mouse assessed as upregulation of CXCL9 mRNA at 160 mg/kg, po administered once daily for 2 weeks by qRT-PCR analysis; format: functional, organism-based
# [14] = Toxicity in BALB/c mouse harbouring mouse CT26 cells assessed as change in body weight at 40 to 120 mg/kg, po administered once daily for 2 weeks; format: organism-based; details: in vivo, 336 h, dose 40-120 mg/kg
# CT26 [15] = test: Antitumor activity against mouse CT26 cells implanted in BALB/c mouse assessed as downregulation of human PD-Ll expression in tumor tissue at 160 mg/kg per day, po administered once daily for 2 weeks by Western blotting analysis; format: functional, organism-based
# CT26 [16] = test: Antitumor activity against mouse CT26 cells implanted in BALB/c mouse assessed as increase in infiltration of CD8+ T cells level in tumor tissue po administered once daily for 2 weeks by flow cytometry; format: functional, organism-based; details: dose 40-160 mg/kg
# CT26 [17] = test: Antitumor activity against mouse CT26 cells implanted in BALB/c mouse assessed as reduction in tumor weight at 40 mg/kg, po administered once daily for 2 weeks; format: functional; parameters: scale not given: the % may be the effect or the level left
# B16-F10 [18] = test: Antitumor activity against mouse B16-F10 cells implanted in […] mouse assessed as inhibition of tumor volume at 160 mg/kg, po administered once daily for 2 weeks; format: functional, organism-based
# B16-F10 [19] = test: Antitumor immunity activity against mouse B16-F10 cells implanted in […] mouse assessed as increase level of IFN-gamma level in tumor tissue at 40 to 160 mg/kg, po administered once daily for 2 weeks by flow cytometry; format: functional, organism-based; details: dose 40-160 mg/kg
# [20] = biological target: Programmed cell death 1 ligand 1 (Homo sapiens, UniProt Q9NZQ7); test: Binding affinity to human PD-L1 assessed as dissociation constant by micro-scale thermophoresis analysis
# Programmed cell death 1 ligand 1 (Homo sapiens, UniProt Q9NZQ7), sequence (Q9NZQ7 whole entry): as above
# B16-F10 [21] = test: Antitumor activity against mouse B16-F10 cells implanted in […] mouse assessed as decrease in nucleus to cytoplasm interaction in tumor cells at 40 to 160 mg/kg,po administered once daily for 2 weeks by H and E staining based assay; format: functional, organism-based; details: dose 40-160 mg/kg
# [22] = biological target: Programmed cell death 1 ligand 1 (Mus musculus, UniProt Q9EP73); test: Binding affinity to mouse PD-L1 assessed as dissociation constant by micro-scale thermophoresis analysis
# Programmed cell death 1 ligand 1 (Mus musculus, UniProt Q9EP73), sequence (Q9EP73 whole entry): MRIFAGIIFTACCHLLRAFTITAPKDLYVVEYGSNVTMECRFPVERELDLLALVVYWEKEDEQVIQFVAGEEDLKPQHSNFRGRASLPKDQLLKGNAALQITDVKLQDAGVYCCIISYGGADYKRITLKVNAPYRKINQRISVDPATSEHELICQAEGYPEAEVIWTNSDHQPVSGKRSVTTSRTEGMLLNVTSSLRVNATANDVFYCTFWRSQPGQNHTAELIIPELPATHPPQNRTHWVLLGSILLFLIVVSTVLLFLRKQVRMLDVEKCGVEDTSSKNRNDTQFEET
# B16-F10 [23] = test: Antitumor activity against mouse B16-F10 cells implanted in […] mouse assessed as inhibition of tumor volume at 80 mg/kg, po administered once daily for 2 weeks in presence of PD-L1 antibody; format: functional, organism-based
# CT26 [24] = test: Antitumor activity against mouse CT26 cells implanted in BALB/c mouse assessed as downregulation of human PD-L1 expression in tumor tissue at 80 mg/kg per day, po administered once daily for 2 weeks by Western blotting analysis; format: functional, organism-based
# B16-F10 [25] = test: Antitumor activity against mouse B16-F10 cells implanted in […] mouse assessed as decrease in human PD-Ll expression in tumor at 80 mg/kg, po administered once daily for 2 weeks in presence of PD-L1 antibody by Western blotting analysis; format: functional, organism-based
# B16-F10 [26] = test: Antitumor activity against mouse B16-F10 cells implanted in […] mouse assessed as increase in infiltration of CD8+ T cells level in tumor tissue at 40 to 160 mg/kg,po administered once daily for 2 weeks in presence of PD-L1 antibody by flow cytometry; format: functional, organism-based; details: dose 40-160 mg/kg
# CT26 [27] = test: Antitumor activity against mouse CT26 cells implanted in BALB/c mouse assessed as inhibition of tumor cell growth in tumor tissue at 40 to 160 mg/kg, po administered once daily for 2 weeks by H and E staining based assay; format: functional, organism-based; details: dose 40-160 mg/kg
smiles,measurement,setting,value
CC(=O)NCCNCc1cccc(Nc2nnc(-c3cccc(-c4ccccc4)c3C)o2)c1,IC50,[1],34.1 µM
Cc1c(-c2ccccc2)cccc1-c1nnc(Nc2cccc(CN(C)CCO)c2)o1,IC50,[1],67.1 µM
COc1ccc(Nc2nnc(-c3ccc(-c4ccccc4)c(C)c3)o2)cc1,IC50,[1],> 100 µM
Cc1c(-c2ccccc2)cccc1-c1nnc(Nc2cccc(CNCC(=O)O)c2)o1,IC50,[1],24.5 µM
Cc1c(-c2ccccc2)cccc1-c1nnc(Nc2cccc(CNCCCO)c2)o1,IC50,[1],55.9 µM
Cc1c(-c2ccccc2)cccc1-c1nnc(Nc2ccc(CNCC(=O)O)cc2)o1,IC50,[1],516 µM
COc1ccc(Nc2nnc(-c3cccc(-c4ccccc4)c3C)o2)cc1,IC50,[1],2.64 µM
Cc1c(-c2ccccc2)cccc1-c1nnc(Nc2cccc(CN3CC[C@@H](O)C3)c2)o1,IC50,[1],46.4 µM
Cc1c(-c2ccccc2)cccc1-c1nnc(Nc2cccc(CN3CCOCC3)c2)o1,IC50,[1],64.1 µM
COc1ccc(Nc2nnc(-c3ccc([N+](=O)[O-])cc3)o2)cc1,IC50,[1],64.1 µM
Cc1c(-c2ccccc2)cccc1-c1nnc(Nc2cccc(CNCCO)c2)o1,Activity,B16-F10 [2],Dose-Dependent Effect
same,Activity,MDA-MB-231,Active
same,Activity,CT26 [3],55%
same,Activity,CT26 [4],inactive
same,Activity,B16-F10 [5],Dose-Dependent Effect
same,Activity,[6],Non-Toxic
same,Activity,CT26 [7],Active
same,Activity,CT26 [8],Active
same,Activity,CT26 [9],Dose-Dependent Effect
same,Activity,B16-F10 [10],Active
same,Activity,B16-F10 [11],Active
same,Activity,CT26 [12],75%
same,Activity,CT26 [13],Active
same,IC50,[1],27.8 µM
same,Activity,[14],Non-Toxic
same,Activity,CT26 [15],Active
same,Activity,CT26 [16],Dose-Dependent Effect
same,Activity,CT26 [17],45%
same,Activity,B16-F10 [18],Active
same,Activity,B16-F10 [19],Active
same,Kd,[20],0.025 µM
same,Activity,B16-F10 [21],Active
same,Kd,[22],0.48 µM
same,Activity,B16-F10 [23],Active
same,Activity,CT26 [24],Active
same,Activity,B16-F10 [25],Active
same,Activity,B16-F10 [26],Dose-Dependent Effect
same,Activity,CT26 [27],Dose-Dependent Effect
Cc1c(-c2ccccc2)cccc1-c1nnc(Nc2ccc(CNCCO)cc2)o1,IC50,[1],744 µM
Cc1c(-c2ccccc2)cccc1-c1nnc(Nc2cccc(CN[C@H](C)CO)c2)o1,IC50,[1],70 µM
Cc1c(-c2ccccc2)cccc1-c1nnc(Nc2cccc(CNCCN)c2)o1,IC50,[1],152 µM
CC(=O)NCCNCc1ccc(Nc2nnc(-c3cccc(-c4ccccc4)c3C)o2)cc1,IC50,[1],1800 µM
